Assay results: PubChem BioAssay AID330 (DTP/NCI, 2004)
“And” between values parts separate entries of the source, which are not always exact repeats. Equal entries are not always repeated. Toxic doses and inconclusive results are not listed.

Test system: P388 leukemia ip, CD2F1 mice, survival T/C
Test: NCI In Vivo Anticancer Drug Screen. Data for tumor model P388 Leukemia (intraperitoneal) in CD2F1 (CDF1) mice
Conditions: endpoint: median survival time, higher = longer survival
How it was run: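 Mice carrying the transplanted tumor received test compound or vehicle. Survival was recorded in each group, and the value is the treated-group measurement divided by that of the vehicle-treated control group.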

## COc1cccc2c1C(=O)c1c(O)c3c(c(O)c1C2=O)C[C@@](O)(C(=O)CO)C[C@@H]3OC1CC(N)C(O)C(C)O1 (stereo partly drawn)
dose: 0.04 mg/kg/injection, schedule: Q04DX003 (ip), vehicle: saline
  T/C: 116 % of control
dose: 0.04 mg/kg/injection, schedule: Q04DX003 (ip), vehicle: water
  T/C: 115 % of control
dose: 0.06 mg/kg/injection, schedule: Q01DX005 (sc), vehicle: water
  T/C: 100 % of control
dose: 0.06 mg/kg/injection, schedule: Q03HX008 (ip), vehicle: saline
  T/C: 114 % of control
dose: 0.06 mg/kg/injection, schedule: Q04DX003 (ip), vehicle: water
  T/C: 122 % of control
dose: 0.1 mg/kg/injection, schedule: Q04DX003 (ip), vehicle: water
  T/C: 121 % of control
dose: 0.12 mg/kg/injection, schedule: Q01DX005 (sc), vehicle: water
  T/C: 101 % of control
dose: 0.13 mg/kg/injection, schedule: Q01DX009 (ip), vehicle: water
  T/C: 162 % of control
dose: 0.13 mg/kg/injection, schedule: Q03HX008 (ip), vehicle: saline
  T/C: 116 % of control
dose: 0.25 mg/kg/injection, schedule: Q01DX001 (ip), vehicle: Klucel (hydroxypropylcellulose) (HPC)
  T/C: 108 % of control
dose: 0.25 mg/kg/injection, schedule: Q01DX001 (ip), vehicle: saline with Tween-80
  T/C: 112 % of control
dose: 0.25 mg/kg/injection, schedule: Q01DX001 (ip), vehicle: saline
  T/C: 105 % of control
dose: 0.25 mg/kg/injection, schedule: Q01DX005 (ip), vehicle: water
  T/C: 153 % of control and 160 % of control and 161 % of control
dose: 0.25 mg/kg/injection, schedule: Q01DX005 (sc), vehicle: water
  T/C: 103 % of control
dose: 0.3 mg/kg/injection, schedule: Q04DX003 (ip), vehicle: water
  T/C: 153 % of control
dose: 0.38 mg/kg/injection, schedule: Q01DX009 (ip), vehicle: water
  T/C: 151 % of control
dose: 0.38 mg/kg/injection, schedule: Q04DX003 (ip), vehicle: water
  T/C: 103 % of control
dose: 0.44 mg/kg/injection, schedule: Q04DX003 (ip), vehicle: saline
  T/C: 158 % of control
dose: 0.5 mg/kg/injection, schedule: Q01DX001 (ip), vehicle: Klucel (hydroxypropylcellulose) (HPC)
  T/C: 112 % of control
dose: 0.5 mg/kg/injection, schedule: Q01DX001 (ip), vehicle: saline with Tween-80
  T/C: 115 % of control
dose: 0.5 mg/kg/injection, schedule: Q01DX005 (oral), vehicle: water
  T/C: 108 % of control
dose: 0.5 mg/kg/injection, schedule: Q01DX005 (sc), vehicle: water
  T/C: 108 % of control
dose: 0.58 mg/kg/injection, schedule: Q04DX003 (ip), vehicle: saline
  T/C: 159 % of control
dose: 0.62 mg/kg/injection, schedule: Q01DX001 (ip), vehicle: water
  T/C: 159 % of control
dose: 0.63 mg/kg/injection, schedule: Q01DX001 (ip), vehicle: water
  T/C: 154 % of control
dose: 0.75 mg/kg/injection, schedule: Q04DX003 (ip), vehicle: water
  T/C: 118 % of control
dose: 0.97 mg/kg/injection, schedule: Q04DX002 (ip), vehicle: saline
  T/C: 157 % of control and 160 % of control
dose: 0.97 mg/kg/injection, schedule: Q04DX003 (ip), vehicle: water
  T/C: 163 % of control
dose: 1.0 mg/kg/injection, schedule: Q01DX001 (ip), vehicle: Klucel (hydroxypropylcellulose) (HPC)
  T/C: 110 % of control
dose: 1.0 mg/kg/injection, schedule: Q01DX001 (ip), vehicle: saline with Tween-80
  T/C: 119 % of control
dose: 1.0 mg/kg/injection, schedule: Q01DX001 (iv), vehicle: saline
  T/C: 113 % of control
dose: 1.0 mg/kg/injection, schedule: Q01DX005 (oral), vehicle: water
  T/C: 112 % of control
dose: 1.0 mg/kg/injection, schedule: Q01DX005 (sc), vehicle: water
  T/C: 113 % of control
dose: 1.0 mg/kg/injection, schedule: Q04DX003 (iv), vehicle: saline
  T/C: 100 % of control
dose: 1.04 mg/kg/injection, schedule: Q04DX002 (ip), vehicle: saline
  T/C: 161 % of control
dose: 1.08 mg/kg/injection, schedule: Q04DX003 (ip), vehicle: saline
  T/C: 159 % of control
dose: 1.3 mg/kg/injection, schedule: Q01DX001 (ip), vehicle: water
  T/C: 156 % of control
dose: 1.5 mg/kg/injection, schedule: Q04DX003 (ip), vehicle: water
  T/C: 117 % of control and 120 % of control
dose: 1.8 mg/kg/injection, schedule: Q01DX001 (ip), vehicle: saline
  T/C: 154 % of control
dose: 2.0 mg/kg/injection, schedule: Q01DX001 (ip), vehicle: DMSO
  T/C: 157 % of control
dose: 2.0 mg/kg/injection, schedule: Q01DX001 (ip), vehicle: Klucel (hydroxypropylcellulose) (HPC)
  T/C: 122 % of control
dose: 2.0 mg/kg/injection, schedule: Q01DX001 (iv), vehicle: saline
  T/C: 108 % of control
dose: 2.0 mg/kg/injection, schedule: Q01DX005 (oral), vehicle: water
  T/C: 104 % of control
dose: 2.0 mg/kg/injection, schedule: Q03HX008 (ip), vehicle: saline
  T/C: 162 % of control
dose: 2.0 mg/kg/injection, schedule: Q04DX003 (iv), vehicle: saline
  T/C: 114 % of control
dose: 2.1 mg/kg/injection, schedule: Q01DX004 (ip), vehicle: saline
  T/C: 161 % of control
dose: 2.59 mg/kg/injection, schedule: Q01DX001 (ip), vehicle: saline
  T/C: 160 % of control
dose: 3.0 mg/kg/injection, schedule: Q01DX001 (ip), vehicle: saline
  T/C: 154 % of control
dose: 3.0 mg/kg/injection, schedule: Q04DX003 (ip), vehicle: water
  T/C: 120 % of control
dose: 3.7 mg/kg/injection, schedule: Q01DX001 (ip), vehicle: saline
  T/C: 153 % of control
dose: 4.0 mg/kg/injection, schedule: Q01DX001 (ip), vehicle: DMSO
  T/C: 162 % of control
dose: 4.0 mg/kg/injection, schedule: Q01DX001 (ip), vehicle: saline with Tween-80
  T/C: 122 % of control
dose: 4.0 mg/kg/injection, schedule: Q01DX001 (iv), vehicle: saline
  T/C: 123 % of control
dose: 4.0 mg/kg/injection, schedule: Q01DX005 (oral), vehicle: water
  T/C: 105 % of control
dose: 4.5 mg/kg/injection, schedule: Q04DX003 (iv), vehicle: saline
  T/C: 163 % of control
dose: 4.75 mg/kg/injection, schedule: Q01DX001 (ip), vehicle: saline
  T/C: 163 % of control
dose: 5.0 mg/kg/injection, schedule: Q01DX009 (ip), vehicle: saline
  T/C: 98 % of control and 105 % of control
dose: 5.4 mg/kg/injection, schedule: Q04DX003 (ip), vehicle: saline
  T/C: 150 % of control
dose: 5.4 mg/kg/injection, schedule: Q04DX003 (ip), vehicle: water
  T/C: 115 % of control
dose: 6.0 mg/kg/injection, schedule: Q04DX003 (ip), vehicle: water
  T/C: 154 % of control
dose: 6.0 mg/kg/injection, schedule: Q04DX003 (oral), vehicle: saline
  T/C: 98 % of control
dose: 6.33 mg/kg/injection, schedule: Q01DX001 (iv), vehicle: saline
  T/C: 116 % of control
dose: 8.0 mg/kg/injection, schedule: Q01DX001 (oral), vehicle: saline
  T/C: 98 % of control
dose: 8.0 mg/kg/injection, schedule: Q01DX005 (oral), vehicle: water
  T/C: 107 % of control
dose: 8.0 mg/kg/injection, schedule: Q04DX002 (ip), vehicle: saline
  T/C: 108 % of control
dose: 10.0 mg/kg/injection, schedule: Q04DX003 (oral), vehicle: saline
  T/C: 105 % of control
dose: 11.25 mg/kg/injection, schedule: Q01DX001 (iv), vehicle: saline
  T/C: 156 % of control
dose: 12.0 mg/kg/injection, schedule: Q01DX001 (oral), vehicle: saline
  T/C: 106 % of control
dose: 15.0 mg/kg/injection, schedule: Q04DX003 (iv), vehicle: saline
  T/C: 153 % of control
dose: 16.0 mg/kg/injection, schedule: Q01DX001 (ip), vehicle: saline with Tween-80
  T/C: 151 % of control
dose: 16.0 mg/kg/injection, schedule: Q01DX001 (oral), vehicle: saline
  T/C: 100 % of control
dose: 16.0 mg/kg/injection, schedule: Q01DX005 (oral), vehicle: water
  T/C: 103 % of control
dose: 16.0 mg/kg/injection, schedule: Q04DX003 (iv), vehicle: saline
  T/C: 103 % of control
dose: 16.7 mg/kg/injection, schedule: Q04DX003 (oral), vehicle: saline
  T/C: 107 % of control and 112 % of control
dose: 17.5 mg/kg/injection, schedule: Q01DX001 (ip), vehicle: saline
  T/C: 150 % of control
dose: 20.0 mg/kg/injection, schedule: Q01DX001 (oral), vehicle: saline
  T/C: 103 % of control
dose: 27.8 mg/kg/injection, schedule: Q04DX003 (oral), vehicle: saline
  T/C: 100 % of control and 106 % of control
dose: 32.0 mg/kg/injection, schedule: Q01DX001 (ip), vehicle: Klucel (hydroxypropylcellulose) (HPC)
  T/C: 112 % of control
dose: 32.0 mg/kg/injection, schedule: Q01DX001 (ip), vehicle: saline with Tween-80
  T/C: 161 % of control
dose: 32.0 mg/kg/injection, schedule: Q01DX001 (oral), vehicle: saline
  T/C: 100 % of control
dose: 33.3 mg/kg/injection, schedule: Q01DX001 (oral), vehicle: saline
  T/C: 99 % of control and 106 % of control
dose: 46.3 mg/kg/injection, schedule: Q04DX003 (oral), vehicle: saline
  T/C: 103 % of control and 112 % of control
dose: 64.0 mg/kg/injection, schedule: Q01DX001 (oral), vehicle: saline
  T/C: 107 % of control
dose: 77.2 mg/kg/injection, schedule: Q04DX003 (oral), vehicle: saline
  T/C: 101 % of control
dose: 92.6 mg/kg/injection, schedule: Q01DX001 (oral), vehicle: saline
  T/C: 106 % of control
dose: 128.0 mg/kg/injection, schedule: Q01DX001 (oral), vehicle: saline
  T/C: 100 % of control
dose: 128.6 mg/kg/injection, schedule: Q04DX003 (oral), vehicle: saline
  T/C: 99 % of control
dose: 154.3 mg/kg/injection, schedule: Q01DX001 (oral), vehicle: saline
  T/C: 101 % of control
